Earlier results in US20250178999A1, “ONE STEP SYNTHESIS OF 1-TETRALONE COMPOUNDS AND USES THEREOF IN THE PREPARATION OF (+)-TETRALONE ABSCISIC ACID (ABA)” (University of Saskatchewan, priority 2022, published 2025).
Like-named read-outs stand apart in the source and are kept apart here.

Tests used:
[1] = tested on: corn cell suspension system; conditions: Nyangulu et al 2006
[2] = Nyangulu et al 2006
Arabidopsis = conditions: for IC50: Vaidya et al 2019, read-out: IC50 in germination of Arabidopsis
corn cell = conditions: Nyangulu et al 2006
ABA receptors [3] = conditions: Arabidopsis receptors; Vaidya et al 2019
ABA receptors [4] = conditions: wheat receptors; Vaidya et al 2019
lettuce = conditions: Han et al 2015
rice seedling = conditions: Han et al 2015

Row | Compound | IC50 (Arabidopsis) [nM] | relative potency of 7 and (+)-5 by receptor subgroup (ABA receptors [3]) | relative potency of 7 and (+)-5 by receptor subgroup (ABA receptors [4]) | also measured
1 | CC(=C/C(=O)O)/C=C/[C@@]1(O)c2ccccc2C(=O)C[C@]1(C)CO [Compound 8] |  |  |  | metabolic fate in corn cell suspension system [1]: not converted to a phaseic acid-like compound; biological activity [2]: retain biological activity
2 | CC(=C/C(=O)O)/C=C/[C@@]1(O)c2ccccc2C(=O)CC1(C)C [(+)-5, (2Z,4E)-5-((S)-1-hydroxy-2,2-dimethyl-4-oxo-1,2,3,4-tetrahydronaphthalen-1-yl)-3-methylpenta-2,4-dienoic acid] | 194 | more potent in subgroup II | more potent in subgroup II | activity in seed germination inhibition assay in Arabidopsis compared to ABA (Arabidopsis; Nyangulu et al 2006): higher activity than ABA; activity in corn cell growth inhibition assay compared to ABA (corn cell): higher activity than ABA
3 | CC1=CC(=O)CC(C)(C)[C@@]1(O)/C=C/C(C)=C\C(=O)O [(+)-1, (2Z,4E)-5-[(1S)-1-hydroxy-2,6,6-trimethyl-4-oxocyclohex-2-en-1-yl]-3-methylpenta-2,4-dienoic acid, reference compound] | 601 |  |  | 
4 | N#Cc1c(C2CC2)cc(CC(=O)NC2(C(=O)O)CCCCC2)cc1C1CC1 [Compound 7, opabactin, reference compound] | 62 | more the active in subgroup III | more the active in subgroup III | 
5 | CC(=C/C(=O)O)/C=C/C1(O)c2ccccc2C(=O)CC1(C)C (racemic) [(±)-5] |  |  |  | activity in seed germination assay in arabidopsis compared to racemic ABA (Arabidopsis; Han et al 2015): higher activity than racemic ABA; activity in seed germination assay in lettuce compared to racemic ABA (lettuce): higher activity than racemic ABA; activity in rice seedling growth inhibition assay compared to racemic ABA (rice seedling): higher activity than racemic ABA
